Assay results published in patent US11813306B2, “Cyclic tetramer compounds as proprotein convertase subtilisin/kexin type 9 (PCSK9) inhibitors for the treatment of metabolic disorders” (NOVARTIS AG, priority 2018, dated 2023).
pIC50: −log10 of the molar value. Like-named read-outs stand apart in the source and are kept apart here.

Legend:
[1] = amide bond, DCM
human PCSK9 = human PCSK9 (Homo sapiens, UniProt Q8NBP7); assay: PCSK9 ligand binding assay (TR-FRET): interference with binding of human PCSK9 to human LDLR; conditions: for pIC50: Human PCSK9 Alexa Fluor 647 / Human LDLR extracellular domain-Europium Kryptate; for Max % inhibition: efficacy (Amax), 100% = 1 uM unlabeled human PCSK9, 0% = DMSO
How it was run: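 Read-out was TR-FRET ratio (665 nm over 615 nm, 330 nm excitation) between Alexa Fluor 647-human PCSK9 (16 nM added) and Europium Kryptate-human LDLR ectodomain (4 nM added). Compound and PCSK9 were mixed 30 min before LDLR, then incubated 2 h. Inhibition was normalised to DMSO and unlabelled-PCSK9 controls, giving IC50 and Amax.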

Chain of human PCSK9 (Q8NBP7 153-692): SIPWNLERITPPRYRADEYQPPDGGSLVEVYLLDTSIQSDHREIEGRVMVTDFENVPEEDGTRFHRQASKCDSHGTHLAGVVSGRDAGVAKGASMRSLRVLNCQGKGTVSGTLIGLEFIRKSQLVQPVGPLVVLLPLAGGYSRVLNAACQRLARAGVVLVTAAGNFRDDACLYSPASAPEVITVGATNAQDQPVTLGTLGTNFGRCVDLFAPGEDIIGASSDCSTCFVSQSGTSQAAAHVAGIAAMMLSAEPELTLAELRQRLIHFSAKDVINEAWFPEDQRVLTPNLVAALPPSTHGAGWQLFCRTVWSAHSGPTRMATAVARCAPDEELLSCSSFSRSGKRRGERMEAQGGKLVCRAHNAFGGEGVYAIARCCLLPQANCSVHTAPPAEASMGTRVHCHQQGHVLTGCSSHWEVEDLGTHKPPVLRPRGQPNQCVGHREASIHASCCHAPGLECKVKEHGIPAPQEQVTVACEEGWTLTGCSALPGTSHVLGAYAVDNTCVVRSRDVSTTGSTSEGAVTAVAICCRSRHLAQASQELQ
Chain of human PCSK9 (Q8NBP7 31-152 partner limits assumed): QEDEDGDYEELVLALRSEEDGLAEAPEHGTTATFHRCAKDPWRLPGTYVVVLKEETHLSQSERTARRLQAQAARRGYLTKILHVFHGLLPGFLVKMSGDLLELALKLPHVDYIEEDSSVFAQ

SMILES | pIC50 (human PCSK9) | Max % inhibition (human PCSK9) | further results
COC[C@@H]1NC(=O)[C@H](C)N(Cc2c(F)cc(Cl)cc2Oc2ccc(-c3cnc(CN(C(=O)OC(C)(C)C)C(C)(C)C)n3C)cc2)C(=O)C[C@@H](C2CC(F)(F)C2)C(=O)N2CCC[C@@](Cc3ccc(Cl)cc3)(C2)N(C)C1=O |  |  | ring closure, yield of all isomers ([1]; from COC[C@H](NC(=O)[C@H](C)NCc1c(F)cc(Cl)cc1Oc1ccc(-c2cnc(CN(C(=O)OC(C)(C)C)C(C)(C)C)n2C)cc1)C(=O)N(C)[C@@]1(Cc2ccc(Cl)cc2)CCCN(C(=O)[C@@H](CC(=O)O)C2CC(F)(F)C2)C1, HATU, 1.82 mM, 42.0 °C): 86%
C[C@H]1C(=O)N[C@@H](CO)C(=O)N[C@@]2(Cc3ccc(Cl)cc3)CCCN(C2)C(=O)[C@H](Cc2ccccc2)NC(=O)N1Cc1ccc(Cl)cc1Oc1ccc(-c2cnc(CN(C)C)n2C)cc1.Cl [Compound 60, (3S,7S,10S,13R)-3-benzyl-6-(4-chloro-2-(4-(2-((dimethylamino)methyl)-1-methyl-1H-imidazol-5-yl)phenoxy)benzyl)-13-(4-chlorobenzyl)-10-(hydroxymethyl)-7-methyl-1,4,6,9,12-pentaaza-bicyclo[11.3.1]-heptadecane-2,5,8,11-tetraone hydrochloride] | 9.32 | 106.6% | ring closure, yield of all isomers ([1]; from C[C@@H](C(=O)N[C@@H](CO)C(=O)N[C@@]1(Cc2ccc(Cl)cc2)CCCNC1)N(Cc1ccc(Cl)cc1Oc1ccc(-c2cnc(CN(C)C)n2C)cc1)C(=O)N[C@@H](Cc1ccccc1)C(=O)O, HATU/HOAt/2,6-lutidine, 1.0 mM, 25.0 °C, 2.5 h): 55%
C[C@H]1C(=O)N[C@@H](CO)C(=O)N(C)[C@@]2(Cc3ccc(Cl)cc3)CCCN(C2)C(=O)[C@H](Cc2cccc[n+]2[O-])CC(=O)N1Cc1ccc(Cl)cc1Oc1ccc(-c2cnc(CN(C)C)n2C)cc1 |  |  | ring closure, yield of all isomers ([1]; from C[C@H](NCc1ccc(Cl)cc1Oc1ccc(-c2cnc(CN(C)C)n2C)cc1)C(=O)N[C@@H](CO)C(=O)N(C)[C@@]1(Cc2ccc(Cl)cc2)CCCN(C(=O)[C@@H](CC(=O)O)Cc2cccc[n+]2[O-])C1, HATU, 0.83 mM, 48.0 °C, 4.0 h): 100%
CC(C)[C@H]1CC(=O)N(Cc2ccc(Cl)cc2Oc2ccc(-c3cnc(CN(C)C)n3C)cc2)[C@@H](C)C(=O)N[C@@H](CO)C(=O)N[C@@]2(Cc3ccc(Cl)cc3)CCCN(C2)C1=O.Cl [Compound 133, (3R,7S,10S,13R)-6-(4-chloro-2-(4-(2-((dimethylamino)methyl)-1-methyl-1H-imidazol-5-yl)phenoxy)benzyl)-13-(4-chlorobenzyl)-10-(hydroxymethyl)-3-isopropyl-7-methyl-1,6,9,12-tetraazabicyclo[11.3.1]heptadecane-2,5,8,11-tetraone hydrochloride] | 5.83 | 76.9% | ring closure, yield of all isomers ([1]; from CC(C)[C@@H](CC(=O)N(Cc1ccc(Cl)cc1Oc1ccc(-c2cnc(CN(C)C)n2C)cc1)[C@@H](C)C(=O)N[C@@H](CO)C(=O)N[C@@]1(Cc2ccc(Cl)cc2)CCCNC1)C(=O)O, HATU, 1.0 mM, 25.0 °C, 17.0 h): 59%
COC[C@@H]1NC(=O)[C@H](C)N(Cc2ccc(Cl)cc2Oc2ccc(-c3cnc(CN(C)C)n3C)cc2)C(=O)O[C@@H](Cc2ccccc2)C(=O)N2CCC[C@@](Cc3ccc(Cl)cc3)(C2)NC1=O.Cl [Compound 156, (3S,7S,10S,13R)-3-benzyl-6-(4-chloro-2-(4-(2-((dimethylamino)methyl)-1-methyl-1H-imidazol-5-yl)-phenoxy)benzyl)-13-(4-chlorobenzyl)-10-(methoxymethyl)-7-methyl-4-oxa-1,6,9,12-tetraazabicyclo[11.3.1]heptadecane-2,5,8,11-tetraone hydrochloride] | 8.04 | 100.8% | ring closure, yield of all isomers ([1]; from COC[C@H](NC(=O)[C@H](C)N(Cc1ccc(Cl)cc1Oc1ccc(-c2cnc(CN(C)C)n2C)cc1)C(=O)O[C@@H](Cc1ccccc1)C(=O)O)C(=O)N[C@@]1(Cc2ccc(Cl)cc2)CCCNC1, HATU/HOAt, 2,6-lutidine, 0.95 mM, 25.0 °C, 1.5 h): 38%
C[C@H]1C(=O)N[C@@H](CO)C(=O)N[C@@]2(Cc3ccc(Cl)cc3)CCCN(C2)C(=O)[C@H](Cc2cccc[n+]2[O-])CC(=O)N1Cc1ccc(Cl)cc1Oc1ccc(-c2cnc(CN3CCCC3)n2C)cc1 |  |  | ring closure, yield of all isomers ([1]; from C[C@H](NCc1ccc(Cl)cc1Oc1ccc(-c2cnc(CN3CCCC3)n2C)cc1)C(=O)N1[C@H](C(=O)N[C@@]2(Cc3ccc(Cl)cc3)CCCN(C(=O)[C@@H](CC(=O)O)Cc3cccc[n+]3[O-])C2)COC1(C)C, HATU, 1.72 mM, 48.0 °C, 19.0 h, 2 steps): 33.3%
C[C@H]1C(=O)N2[C@@H](COC2(C)C)C(=O)N[C@@]2(Cc3ccc(Cl)cc3)CCCN(C2)C(=O)[C@H](Cc2ccccc2)CC(=O)N1Cc1ccc(Cl)cc1Oc1ccc(-c2cnc(CN(C)C)n2C)cc1 |  |  | ring closure, yield of all isomers ([1]; from C[C@H](NCc1ccc(Cl)cc1Oc1ccc(-c2cnc(CN(C)C)n2C)cc1)C(=O)N1[C@H](C(=O)N[C@@]2(Cc3ccc(Cl)cc3)CCCN(C(=O)[C@@H](CC(=O)O)Cc3ccccc3)C2)COC1(C)C, HATU, 1.04 mM, 45.0 °C): 69%
C[C@H]1C(=O)N[C@@H](CO)C(=O)N(C)[C@@]2(Cc3ccc(Cl)cc3)CCCN(C2)C(=O)[C@H](Cc2cccc[n+]2[O-])CC(=O)N1Cc1c(F)cc(Cl)cc1Oc1ccc(-c2cnc(CN(C)C)n2C)cc1 |  |  | ring closure, yield of all isomers ([1]; from C[C@H](NCc1c(F)cc(Cl)cc1Oc1ccc(-c2cnc(CN(C)C)n2C)cc1)C(=O)N[C@@H](CO)C(=O)N(C)[C@@]1(Cc2ccc(Cl)cc2)CCCN(C(=O)[C@@H](CC(=O)O)Cc2cccc[n+]2[O-])C1, HATU/HOAt/2,6-lutidine, 1.08 mM, 48.0 °C, 4.0 h): 98.8%
CC[C@@H]1CC(=O)N(Cc2ccc(Cl)cc2Oc2ccc(-c3cnc(CN4CCCC4)n3C)cc2)[C@@H](C)C(=O)N[C@@H](CO)C(=O)N[C@@]2(Cc3ccc(Cl)cc3)CCCN(C2)C1=O [Compound 26, (3R, 7S, 10S, 13R)-6-(4-chloro-2-(4-(1-methyl-2-(pyrrolidin-1-ylmethyl)-1H-imidazol-5-yl)phenoxy)benzyl)-13-(4-chlorobenzyl)-3-ethyl-10-(hydroxymethyl)-7-methyl-1,6,9,12-tetraazabicyclo[11.3.1]heptadecane-2,5,8,11-tetraone] | 9.32 | 98.3% | 
CC[C@@H]1CC(=O)N(Cc2c(F)cc(Cl)cc2Oc2ccc(-c3cnc(CN(C)C)n3C)cc2)[C@@H](C)C(=O)N[C@@H](COC)C(=O)N[C@@]2(Cc3ccc(Cl)cc3)CCCN(C2)C1=O [Compound 63] | 9.07 | 117.9% | 
C[C@H]1C(=O)N[C@@H](CO)C(=O)N[C@@]2(Cc3ccc(Cl)cc3)CCCN(C2)C(=O)[C@H](CC(F)(F)F)CC(=O)N1Cc1ccc(Cl)cc1Oc1ccc(-c2cnc(CN(C)C(C)(C)C)n2C)cc1 [Compound 143, (3S, 7S, 10S, 13R)-6-(2-(4-(2-((tert-butyl(methyl)amino)methyl)-1-methyl-1H-imidazol-5-yl)phenoxy)-4-chlorobenzyl)-13-(4-chlorobenzyl)-10-(hydroxymethyl)-7-methyl-3-(2,2,2-trifluoroethyl)-1,6,9,12-tetraazabicyclo[11.3.1]heptadecane-2,5,8,11-tetraone] | 8.89 | 113.6% | 
COC[C@@H]1NC(=O)[C@H](C)N(Cc2ccc(Cl)cc2Oc2ccc(-c3cnc(CN(C)C)n3C)cc2)C(=O)C[C@@H](CC(F)(F)F)C(=O)N2CCC[C@@](Cc3ccc(Cl)cc3)(C2)NC1=O [Compound 2, (3S, 7S, 10S, 13R)-6-(4-chloro-2-(4-(2-((dimethylamino)methyl)-1-methyl-1H-imidazol-5-yl)phenoxy)benzyl)-13-(4-chlorobenzyl)-10-(methoxymethyl)-7-methyl-3-(2,2,2-trifluoroethyl)-1,6,9,12-tetraazabicyclo[11.3.1]heptadecane-2,5,8,11-tetraone] | 9.07 | 112.5% | 
COC[C@@H]1NC(=O)[C@H](C)N(Cc2ccc(Cl)cc2Oc2ccc(-c3cnc(CN4CCCC4)n3C)cc2)C(=O)C[C@@H]([C@H]2CCc3ccccc32)C(=O)N(CC2(C)CC2)C[C@@H](Cc2ccc(Cl)cc2)N(C)C1=O.Cl [Compound 115, (2S, 5S, 8R, 12S)-1-(4-chloro-2-(4-(1-methyl-2-(pyrrolidin-1-ylmethyl)-1H-imidazol-5-yl)phenoxy)benzyl)-8-(4-chlorobenzyl)-12-((R)-2,3-dihydro-1H-inden-1-yI)-5-(methoxymethyl)-2,7-dimethyl-10-((1-methylcyclopropyl)methyl)-1,4,7,10-tetraazacyclotetradecane-3,6,11,14-tetraone] | 7.60 | 99.0% | 
COC[C@@H]1NC(=O)[C@H](C)N(Cc2c(F)cc(Cl)cc2Oc2ccc(-c3cnc(CN(C)C(C)(C)C)n3C)cc2)C(=O)C[C@@H](CC(F)(F)F)C(=O)N2CCC[C@@](Cc3ccc(Cl)cc3)(C2)N(C)C1=O [Compound 141, (3S, 7S, 10S, 13R)-6-(2-(4-(2-((tert-butyl(methyl)amino)methyl)-1-methyl-1H-imidazol-5-yl)phenoxy)-4-chloro-6-fluorobenzyl)-13-(4-chlorobenzyl)-10-(methoxymethyl)-7,12-dimethyl-3-(2,2,2-trifluoroethyl)-1,6,9,12-tetraazabicyclo[11.3.1]heptadecane-2,5,8,11-tetraone] | 8.75 | 112.3% | 
C[C@@H](c1ccccc1)[C@@H]1CC(=O)N(Cc2ccc(Cl)cc2Oc2ccc(-c3cnc(CN4CCCC4)n3C)cc2)[C@@H](C)C(=O)N[C@@H](CO)C(=O)N(C)[C@H](Cc2ccc(Cl)cc2)CN(C)C1=O.Cl [Compound 107, (2S, 5S, 8R, 12S)-1-(4-chloro-2-(4-(1-methyl-2-(pyrrolidin-1-ylmethyl)-1H-imidazol-5-yl)phenoxy)benzyl)-8-(4-chlorobenzyl)-5-(hydroxymethyl)-2,7,10-trimethyl-12-((R)-1-phenylethyl)-1,4,7,10-tetraazacyclotetradecane-3,6,11,14-tetraone] | 8.11 | 105.6% | 
